Laboratory results reported in ChEMBL document CHEMBL5214948, “Boronic Acid: A Novel Pharmacophore Targeting Src Homology 2 (SH2) Domain of STAT3” (J Med Chem, 2022).
The source made the active and inactive calls. No cut-off for these calls is given here.

What was measured:
AGS [1] = test: Antiproliferative activity against human AGS cells assessed as reduction in cell viability incubated for 72 hrs by CCK-8 assay; type: functional, cell-based
MGC-803 [2] = test: Antiproliferative activity against human MGC-803 cells assessed as reduction in cell viability measured after 72 hrs by CCK-8 assay; type: functional, cell-based; conditions: MGC-803, 72 h
[3] = molecular target: T1, Signal transducer and activator of transcription 3 (Homo sapiens, UniProt P40763); test: Binding affinity to full length wild type STAT3-SH2 domain (unknown origin) assessed as association constant by SPR analysis
T1 sequence (P40763 whole entry, the tested form may be a part): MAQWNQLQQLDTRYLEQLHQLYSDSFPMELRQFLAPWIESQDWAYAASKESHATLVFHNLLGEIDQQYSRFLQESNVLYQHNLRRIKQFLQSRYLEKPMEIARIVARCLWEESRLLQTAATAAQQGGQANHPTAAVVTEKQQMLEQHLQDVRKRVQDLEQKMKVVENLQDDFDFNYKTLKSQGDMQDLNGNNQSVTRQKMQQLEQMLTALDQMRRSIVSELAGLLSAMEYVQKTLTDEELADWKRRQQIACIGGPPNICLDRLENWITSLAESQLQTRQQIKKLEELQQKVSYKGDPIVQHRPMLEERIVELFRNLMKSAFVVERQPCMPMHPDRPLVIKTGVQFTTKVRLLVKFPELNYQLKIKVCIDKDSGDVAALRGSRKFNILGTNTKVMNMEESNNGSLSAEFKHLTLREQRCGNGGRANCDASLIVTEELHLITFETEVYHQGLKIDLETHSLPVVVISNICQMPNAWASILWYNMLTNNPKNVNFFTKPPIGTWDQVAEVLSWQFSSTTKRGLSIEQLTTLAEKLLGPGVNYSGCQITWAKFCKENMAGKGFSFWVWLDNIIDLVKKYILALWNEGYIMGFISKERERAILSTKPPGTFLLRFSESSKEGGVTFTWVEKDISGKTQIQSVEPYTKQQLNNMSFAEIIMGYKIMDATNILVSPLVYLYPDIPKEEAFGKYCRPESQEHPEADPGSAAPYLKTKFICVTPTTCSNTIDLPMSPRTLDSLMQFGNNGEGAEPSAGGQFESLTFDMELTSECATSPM

[4] = molecular target: T1, Signal transducer and activator of transcription 3; test: Binding affinity to full length wild type STAT3-SH2 domain (unknown origin) in human MGC-803 cells assessed as thermal stabilization of protein at 37 to 53 degreeC at 5 uM incubated for 3 hrs by cellular thermal shift assay; type: cell-based
[5] = molecular target: T1, Signal transducer and activator of transcription 3; test: Inhibition of STAT3 transcriptional activity transfected in HEK293T cells at 3 to 5 uM incubated for 24 hrs by dual-ludferase reporter gene assay; type: cell-based; conditions: dose 3-5 µM
[6] = Antiproliferative activity against […] H9c2 cells assessed as reduction in cell viability incubated for 72 hrs by CCK-8 assay; type: toxicity, cell-based; conditions: rat
AGS [7] = test: Induction of apoptosis in human AGS cells at 3 uM incubated for 72 hrs by V-FITC/PI staining based flow cytometry assay; type: functional
MGC-803 [8] = test: Induction of apoptosis in human MGC-803 cells at 5 uM incubated for 72 hrs by V-FITC/PI staining based flow cytometry assay; type: functional
MGC-803 [9] = test: Antitumor activity against human MGC-803 cells xenografted in BALB/c nude mouse assessed as tumor growth inhibition at 15 mg/kg, ip measured every day for 20 days; type: functional; design: scale not given: the % may be the effect or the level left; conditions: time 20 day
[10] = Toxicity in BALB/c nude mouse xenografted with MGC-803 cells assessed as effect on body weight at 15 mg/kg, ip measured every day for 20 days; type: organism-based; conditions: in vivo, 480 h, time 20 day
[11] = Toxicity in BALB/c nude mouse xenografted with MGC-803 cells assessed as effect on body weight at 5 mg/kg, ip measured every day for 20 days; type: organism-based; conditions: in vivo, 480 h, time 20 day
MGC-803 [12] = test: Antiproliferative activity against human MGC-803 cells assessed as reduction in cell viability pretreated for 12 hrs followed by compound washout and measured after 24 hrs; type: functional, cell-based

| SMILES | IC50 (AGS [1]) | IC50 (MGC-803 [2]) | Ka [3] | Activity [4] | inhibition [5] | IC50 at 72 h [6] | Activity (AGS [7]) | Activity (MGC-803 [8]) | Activity (MGC-803 [9]) | Activity [10] | Activity [11] | Activity (MGC-803 [12]) |
| --- | --- | --- | --- | --- | --- | --- | --- | --- | --- | --- | --- | --- |
| O=C([C@H]1CCN1S(=O)(=O)c1c(F)c(F)c(F)c(F)c1F)N(Cc1ccc(C2CCCCC2)cc1)c1ccc(B(O)O)cc1 | 1.98 µM | 4.83 µM |  |  |  |  |  |  |  |  |  |  |
| O=C([C@H]1CCCN1S(=O)(=O)c1c(F)c(F)c(F)c(F)c1F)N(Cc1ccc(C2CCCCC2)cc1)c1ccc(B(O)O)cc1 | 2.78 µM | 6.07 µM |  |  |  |  |  |  |  |  |  |  |
| CN(CC(=O)N(Cc1ccc(C2CCCCC2)cc1)c1ccc(C(=O)O)cc1)S(=O)(=O)c1c(F)c(F)c(F)c(F)c1F | 5.42 µM | 8.51 µM | 3.02 10^3/M/s | Active | Active | 10.2 µM | 16.2% | 5.7% | 49.05% | Non-Toxic | Non-Toxic | Active |
